Results taken from patent US12404272B2, “Process for making a PD-1/PD-L1 inhibitor and salts and crystalline forms thereof” (Incyte Corporation, priority 2020, dated 2025).
Structures can show the parent of a compound that is named as a salt.

Assays:
Type in all cases: physicochemical
[1] = Gravimetric vapour sorption (GVS)
Method: Gravimetric Vapour sorption (GVS) was carried out using a SMS DVS Intrinsic moisture sorption analyser, controlled by DVS Intrinsic Control software. The sample temperature was maintained at 25° C. by the instrument controls. The humidity was controlled by mixing streams of dry and wet nitrogen, with a total flow rate of 200 ml/min. The relative humidity was measured by a calibrated Rotronic probe (dynamic range of 1.0-100% RH), located near the sample. The weight change, (mass relaxation) of the sample as a function of % RH was constantly monitored by a microbalance (accuracy ±0.005 mg).
Typically, 5-30 mg of sample was placed in a tared mesh stainless steel basket under ambient conditions. The sample was loaded and unloaded at 40% RH and 25° C. (typical room conditions). A moisture sorption isotherm was performed as outlined below (2 scans per complete cycle). The standard isotherm was performed at 25° C. at 10% RH intervals over a 0-90% RH range. Typically, a double cycle (4 scans) was carried out.
The sample was recovered after completion of the isotherm and re-analysed by XRPD.

[2] = Static storage at elevated temperature and relative humidity, re-analysis by XRPD
Method: In some examples below, X-Ray Powder Diffraction analysis was carried out on a Bruker D8 X-ray Powder Diffractometer (XRPD) instrument using Cu Kα radiation (40 kV, 40 mA) and a θ-2θ goniometer fitted with a Ge monochromator. The incident beam passes through a 2.0 mm divergence slit followed by a 0.2 mm anti-scatter slit and knife edge. The diffracted beam passes through an 8.0 mm receiving slit with 2.5° Soller slits followed by the Lynxeye Detector. The software used for data collection and analysis was Diffrac Plus XRD Commander and Diffrac Plus EVA respectively. Samples were run under ambient conditions as flat plate specimens using powder as received. The sample was prepared on a polished, zero-background (510) silicon wafer by gently pressing onto the flat surface or packed into a cut cavity. The sample was rotated in its own plane. The general experimental procedures for XRPD were: (1) angular range: 2 to 42° 2θ; (2) step size: 0.05° 2θ; and collection time: 0.5 s/step (total collection time: 6.40 min). The extended data collection experimental procedures for XRPD were: (1) angular range: 3 to 30° 2θ; (2) step size: 0.05° 2θ; and collection time: 4 s/step (total collection time: 38.00 min).
In some examples below, X-Ray Powder Diffraction analysis was carried out on a PANalytical Empyrean X-ray Powder Diffractometer (XRPD) instrument using Cu Kα radiation (45 kV, 40 mA) in transmission geometry. A 0.5° slit, 4 mm mask and 0.04 rad Soller slits with a focusing mirror were used on the incident beam. A PIXcel^3D detector, placed on the diffracted beam, was fitted with a receiving slit and 0.04 rad Soller slits. The software used for data collection was X'Pert Data Collector using X'Pert Operator Interface. The data were analysed and presented using Diffrac Plus EVA or HighScore Plus. Samples were prepared and analysed in either a metal or Millipore 96 well-plate in transmission mode. X-ray transparent film was used between the metal sheets on the metal well-plate and powders (approximately 1-2 mg) were used as received. […]

[3] = Maturation in solvents (20 vol), dissolution observed; settings: matured RT-50° C. for 3 days
Method: The methanesulfonic acid salt (20 mg) was treated with solvent (20 vol) and matured (RT −50° C., 4 h) for 3 days. Samples were then analyzed by XRPD. Attempts in improve the crystallinity of the scaled up methanesulfonic acid salt was undertaken by subjecting the material to maturation for 72 h in a variety of solvents. A slight improvement in crystallinity was observed from maturing in 2-propanol, ethyl acetate, and tert-butyl methyl ether.

Compound: Cc1c(Nc2nc(C(F)F)nc3cc(CN4CC[C@@H](O)C4)cnc23)cccc1-c1cccc(-c2nc3cc(CN4CCC(C(=O)O)CC4)cc(C#N)c3o2)c1C [(R)-1-((7-cyano-2-(3′-((2-(difluoromethyl)-7-((3-hydroxypyrrolidin-1-yl)methyl)pyrido[3,2-d]pyrimidin-4-yl)amino)-2,2′-dimethyl-[1,1′-biphenyl]-3-yl)benzo[d]oxazol-5-yl)methyl)piperidine-4-carboxylic acid]
- hygroscopicity ([1]; GVS, 0-90% RH): very hygroscopic
- XRPD analysis following the GVS experiment ([1]; after GVS isotherm): remained unchanged
- weight uptake ([1]; between 0-90% RH, 25° C.): 19.5 % w/w
- XRPD analysis following static storage ([2]; 25° C./97% RH for 5 days): remained unchanged, however a loss in crystallinity was observed
- XRPD analysis following static storage ([2]; 40° C./75% RH for 5 days): remained unchanged, however a loss in crystallinity was observed

Compound: Cc1c(Nc2nc(C(F)F)nc3cc(CN4CC[C@@H](O)C4)cnc23)cccc1-c1cccc(-c2nc3cc(CN4CCC(C(=O)O)CC4)cc(C#N)c3o2)c1C [Free form Form I, (R)-1-((7-cyano-2-(3′-((2-(difluoromethyl)-7-((3-hydroxypyrrolidin-1-yl)methyl)pyrido[3,2-d]pyrimidin-4-yl)amino)-2,2′-dimethyl-[1,1′-biphenyl]-3-yl)benzo[d]oxazol-5-yl)methyl)piperidine-4-carboxylic acid]
- XRPD following static storage ([2]; 7 days at elevated temperature and relative humidity conditions): remained unchanged

Compound: Cc1c(Nc2nc(C(F)F)nc3cc(CN4CC[C@@H](O)C4)cnc23)cccc1-c1cccc(-c2nc3cc(CN4CCC(C(=O)O)CC4)cc(C#N)c3o2)c1C [methanesulfonic acid salt, (R)-1-((7-cyano-2-(3′-((2-(difluoromethyl)-7-((3-hydroxypyrrolidin-1-yl)methyl)pyrido[3,2-d]pyrimidin-4-yl)amino)-2,2′-dimethyl-[1,1′-biphenyl]-3-yl)benzo[d]oxazol-5-yl)methyl)piperidine-4-carboxylic acid]
- dissolution in solvent ([3]; ethanol): complete dissolution
- dissolution in solvent ([3]; water): complete dissolution
